Data set [1] concerns the target T1, purified human recombinant GK (Homo sapiens, UniProt P35557).
T1 sequence (P35557 1-465): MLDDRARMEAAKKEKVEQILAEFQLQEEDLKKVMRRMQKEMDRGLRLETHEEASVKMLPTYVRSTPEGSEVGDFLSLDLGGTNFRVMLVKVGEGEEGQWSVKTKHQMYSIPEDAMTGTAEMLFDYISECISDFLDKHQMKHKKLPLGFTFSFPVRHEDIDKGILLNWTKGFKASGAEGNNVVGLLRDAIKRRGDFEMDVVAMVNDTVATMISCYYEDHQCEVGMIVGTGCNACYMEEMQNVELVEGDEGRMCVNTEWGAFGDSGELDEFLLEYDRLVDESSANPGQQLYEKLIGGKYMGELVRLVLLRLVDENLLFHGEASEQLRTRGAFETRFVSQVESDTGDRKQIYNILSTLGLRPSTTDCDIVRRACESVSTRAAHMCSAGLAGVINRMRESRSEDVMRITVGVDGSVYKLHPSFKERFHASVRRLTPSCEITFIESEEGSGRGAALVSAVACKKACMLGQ
Nature of the data set: Glucokinase activity, coupled enzymatic assay (NADH absorbance at 340 nm). In kind it is biochemical. To be noted: 5 mM glucose; read-out: EC50 values for GK activation at 5 mM Glucose conc. The source says:
(§1) Glucokinase (GK) activity, in vitro, has been measured using a coupled enzymatic assay (Ref: Hariharan et al (1997) Diabetes 46: 11-16). GK catalyzes the first step, the conversion of glucose to glucose-6-phosphate (G6P) in the presence of ATP. G6P in turn is converted by glucose-6-phosphate dehydrogenase (G6PD) to 6-phosphogluconate, a process that requires NAD, resulting in NADH formation. Since the GK-catalyzed step is the rate-limiting step of this coupled enzymatic process, the rate of accumulation of 6-phosphogluconate and NADH is directly proportional to the rate of glucose phosphorylation by GK. The rate of the GK-catalyzed reaction can therefore be measured by monitoring the increase in NADH absorbance at 340 nm.
(§2) The assay is carried out according to the protocol outlined in Hariharan et al (1997), Diabetes 46: 11-16. Briefly, the test compounds are incubated in a reaction mix containing 25 mM HEPES (pH 7.2), 10 mM MgCl2, 100 mM KCl, 5 mM ATP, 2 mM DTT, 0.5 mM NAD, 1 U/ml Leuconostoc mesenteroides G6PD, 0.3 U/ml of purified human recombinant GK, and different concentrations of glucose. Enzymatic activity is calculated from the initial reaction velocity, measured from the change in NADH absorbance as a function of time.
Compounds described in formula (I), in concentration ranges from 1.0 nM to 500 μM, are tested in purified human recombinant Glucokinase assay described above.
A compound is considered to be a glucokinase activator if it, in its testable range of concentrations, yields a higher rate of glucose phosphorylation than in its absence.

The target in data set [2] is T1, purified human recombinant GK. Nature of the data set: Characterization of partial glucokinase activators: dose dependent effect on % ΔS0.5 of glucokinase for glucose. To be noted: for EC50: sigmoidal fit of % ΔS0.5 vs log concentration, read-out: EC50 (measured against % ΔS0.5); for Classification as partial or full GK activator: compared to Ro-28-1675, partial = S0.5 shift between 20% and 90%, full = 90% or more. In kind it is biochemical. As for the experimental part: The ΔS0.5 is then normalized to a percent scale, where the S0.5 in the vehicle control is set to 0% and 0 mM glucose is set to 100%. […] The EC50 of % change in S0.5 is obtained from the sigmoidal fit of the data.
The change in the S0.5 of glucokinase (ΔS0.5) for glucose in the presence of Examples A11, O15 and J1 is calculated by subtracting the S0.5 at each concentration of each Example from the S0.5 in the vehicle control. The ΔS0.5 is then normalized to a percent scale, where the S0.5 in the vehicle control is set to 0% and 0 mM glucose is set to 100%. The % ΔS0.5 is then plotted against the log of the concentration of each Example.
FIG. 2B illustrates such a derived plot, taking S0.5 data from FIG. 2A.
as §1, §2
Compounds of interest are tested in GK assay to monitor dose dependent effect on Glucokinase activation (in kinetic mode), as described above, at various glucose concentration.

The test system of another data set is primary rat hepatocytes. Nature of the data set: Glycogen synthesis in primary rat hepatocytes. In kind it is cell-based. To be noted: 3 hours, over DMSO control. As for the experimental part: Primary hepatocytes are collected from male Wistar rats, and tested for viability by trypan blue exclusion. […] The medium is then replaced with fresh MEM (serum-free) containing 2 μCi/ml of D-[U^14C]-Glucose along with 10 μM of the compound in a final DMSO concentration of 0.1%. The final glucose concentration is brought to 10 mM by the addition of D-Glucose (MEM already contains 5 mM glucose). The cells are incubated for 3 hours at 37° C. […] After another round of centrifugation, the supernatant is removed, and the pellet containing the precipitated glycogen is dried overnight. De novo synthesized glycogen is estimated in a scintillation counter (MicroBeta Trilux, Perkin Elmer), and expressed as fold increase over DMSO control.
The protocol for isolation of primary rat hepatocytes is based on the method described in “Methods in Enzymology, Vol. III. pp 34-50. Ed. by S. P. Colowick and N. O. Kaplan.
Compounds described in formula (I), in concentration ranges from 1.0 nM to 500 μM, are tested in glycogen synthesis assay described above.

Where [3] appears, read: Table 3, vehicle S0.5 = 0%, 0 mM glucose = 100%.
[4] abbreviates: Table 4, partial glucokinase activators.

Broadly, the melting point is the temperature of the solid-liquid transition. In the case of `CC(C)(Oc1ccc2ccccc2c1)C(=O)Nc1nccs1` [Example A5, 2-Methyl-2-(naphthalen-2-yloxy)-N-thiazol-2-yl-propionamide], the melting point was 117 to 118 °C.

As usually defined, the EC50 is the concentration that produces a half-maximal response. In general, Emax refers to the greatest response seen or fitted, relative to the assay's reference. For `CC(C)(Oc1ccc(F)cc1F)C(=O)Nc1ncc(Cl)s1` [Example A11, N-(5-Chloro-thiazol-2-yl)-2-(2,4-difluoro-phenoxy)-2-methyl-propionamide], the concentration giving a half-maximal response (EC50) in data set [1] worked out at 1.8 µM; in data set [2] (Table 3) it was 1250 nM. For the same compound, the Emax in data set [2] (setting [3]) was 7%. Also, the “Classification as partial or full GK activator” value (“Classification” below) in data set [2] was “partial GK activators”.

`CC(Oc1ccc(F)cc1F)(C(=O)Nc1ccc(C(=O)O)cn1)c1ccc(S(C)(=O)=O)cc1` (stereo not shown) [Example P4, 6-[2-(2,4-Difluoro-phenoxy)-2-(4-methanesulfonyl-phenyl)-propionylamio]-nicotinic acid]: the concentration giving a half-maximal response (EC50) in data set [1] is over 14 µM.

Compound `CC(Oc1ccc(F)cc1F)(C(=O)Nc1nc(CC(=O)O)c(Cl)s1)c1ccc(S(C)(=O)=O)cc1` (stereo not shown) [Example P1, {5-Chloro-2-[2-(2,4-difluoro-phenoxy)-2-(4-methanesulfonyl-phenyl)-propionylamino]-thiazol-4-yl}-acetic acid] gave a melting point of 109 to 111 °C. For the same compound, the concentration for a half-maximal effect (EC50) in data set [1] was 7 µM.

As for `CC(C)(Oc1ccc2[nH]ccc2c1)C(=O)Nc1ncc(Cl)s1` [Example A17, N-(5-Chloro-thiazol-2-yl)-2-(1H-indol-5-yloxy)-2-methyl-propionamide], the “Fold increase in glycogen synthesis at 10 μM Compound” value (from here on “Fold increase in glycogen synthesis”) in the data set with primary rat hepatocytes (Table 2, 10 mM glucose) is reported as 2.9 fold.

The compound `CC(Oc1ccc(F)cc1F)(C(=O)Nc1nccs1)c1ccc(S(C)(=O)=O)cc1` (stereo not shown) [Example O1, 2-(2,4-Difluoro-phenoxy)-2-(4-methanesulfonyl-phenyl)-N-thiazol-2-yl-propionamide] yielded a melting point of 89 to 90 °C.

As for `CC(C)(Oc1ccc(F)cc1F)C(=O)Nc1ncc(F)s1` [Example A22, 2-(2,4-Difluoro-phenoxy)-N-(5-fluoro-thiazol-2-yl)-2-methyl-propionamide], the “Fold increase in glycogen synthesis” value with primary rat hepatocytes (Table 5, 10 mM glucose) is given as 2.3 fold.

Consider `CC(C)(Oc1ccc(F)cc1F)C(=O)Nc1nc(CC(=O)Nc2ccc(F)cc2)c(Cl)s1` [Example J4, N-{5-Chloro-4-[(4-fluoro-phenylcarbamoyl)-methyl]-thiazol-2-yl}-2-(2,4-difluoro-phenoxy)-2-methyl-propionamide], for which the maximal response (Emax) in data set [2] (setting [4]) amounted to 50%.

Turning to `CCC(C)(Oc1ccc(F)cc1F)C(=O)Nc1ncc(Cl)s1` (stereo not shown) [Example G7, N-(5-Chloro-thiazol-2-yl)-2-(2,4-difluoro-phenoxy)-2-methyl-butyramide], in data set [1], the half-maximal effective concentration (EC50) is 7.1 µM. Also, in data set [2] (setting [4]), the Emax was determined as 60%.

Take `CC(C)(Oc1cccc(C(=O)O)c1)C(=O)Nc1nccs1` [Example K1, 3-[1-Methyl-1-(thiazol-2-ylcarbamoyl)-ethoxy]-benzoic acid]: the melting point lay in the range of 166 to 168 °C.

`CSc1ccc(OC(C)(C(=O)Nc2ncc(Cl)s2)c2ccc(S(C)(=O)=O)cc2)cc1` (stereo not shown) [Example O4, N-(5-Chloro-thiazol-2-yl)-2-(4-methanesulfonyl-phenyl)-2-(4-methylsulfanyl-phenoxy)-propionamide] had a melting point of 67 to 68 °C.

Consider `CC(Oc1ccc(Cl)cc1)(C(=O)Nc1ncc(Cl)s1)c1ccc(S(C)(=O)=O)cc1` (stereo not shown) [Example O18, 2-(4-Chloro-phenoxy)-N-(5-chloro-thiazol-2-yl)-2-(4-methanesulfonyl-phenyl)-propionamide], for which, in data set [2] (setting [4]), the Emax amounted to 60%.

As to `CC(Oc1ccc(F)cc1F)(C(=O)Nc1ncc(Cl)s1)c1ccc(S(C)(=O)=O)cc1` (stereo not shown) [Example O19, N-(5-Chloro-thiazol-2-yl)-2-(2,4-difluorophenoxy)-2-(4-methanesulfonyl-phenyl)-propionamide], the Emax in data set [2] (setting [4]) worked out at 75%.

As to `CC(Oc1ccc(F)c(F)c1)(C(=O)Nc1ncc(Cl)s1)c1ccc(S(C)(=O)=O)cc1` (stereo not shown) [Example O20, N-(5-Chloro-thiazol-2-yl)-2-(3,4-difluoro-phenoxy)-2-(4-methanesulfonyl-phenyl)-propionamide], the maximum response (Emax) in data set [2] (setting [4]) was 50%.

For the compound `CC(Oc1ccc(F)cc1F)(C(=O)Nc1ncc(F)s1)c1ccc(S(C)(=O)=O)cc1` (stereo not shown) [Example O9, 2-(2,4-Difluoro-phenoxy)-N-(5-fluoro-thiazol-2-yl)-2-(4-methanesulfonyl-phenyl)-propionamide], in the data set on primary rat hepatocytes (Table 5, 10 mM glucose), the “Fold increase in glycogen synthesis” value was found to be 2.8 fold.

On to `CC(Oc1ccc(F)cc1F)(C(=O)Nc1ncc(Cl)s1)c1ccc(S(=O)(=O)C2CC2)cc1` (stereo not shown) [Example O15, N-(5-Chloro-thiazol-2-yl)-2-(4-cyclopropanesulfonyl-phenyl)-2-(2,4-difluoro-phenoxy)-propionamide], for which the concentration for a half-maximal effect (EC50) in data set [1] amounted to 1.8 µM; in data set [2] (Table 3), 1200 nM. Further, in data set [2] (setting [3]), the Emax is 55%. Besides, the “Classification” value in data set [2] was “partial GK activators”.

Regarding “2-(2,4-Difluoro-phenoxy)-2-methyl-N-(1H tetrazol-5-yl)-propionamide [Example A27]”, the EC50 in data set [1] was determined as 7 µM.

`CC(Oc1ccc(F)cc1F)(C(=O)Nc1ccc(C(=O)O)cn1)c1ccc(S(=O)(=O)C2CC2)cc1` (stereo not shown) [Example P5, 6-[2-(4-Cyclopropanesulfonyl-phenyl)-2-(2,4-difluoro-phenoxy)-propionylamino]-nicotinic acid]: the “Fold increase in glycogen synthesis” value in the data set on primary rat hepatocytes (Table 2, 10 mM glucose) is listed as 3.2 fold.

For `Cc1cnc(NC(=O)C(C)(Oc2ccc(F)cc2F)c2ccc(S(C)(=O)=O)cc2)s1` (stereo not shown) [Example O16, 2-(2,4-Difluoro-phenoxy)-2-(4-methanesulfonyl-phenyl)-N-(5-methyl-thiazol-2-yl)-propionamide], the EC50 in data set [1] was determined as 5.4 µM.

In turn, `CCC(C)(Oc1ccc(F)cc1F)C(=O)Nc1nc(CC(=O)O)cs1` (stereo not shown) [Example H1, {2-[2-(2,4-Difluoro-phenoxy)-2-methyl-butyrylamino]-thiazol-4-yl}-acetic acid] gave a melting point of 148 to 149 °C.

Turning to `CC(C)(Oc1ccc(F)cc1F)C(=O)Nc1nc(CC(=O)Nc2ccc(F)cc2)cs1` [Example J1, 2-(2,4-Difluoro-phenoxy)-N-{4-[(4-fluoro-phenylcarbamoyl)-methyl]-thiazol-2-yl}-2-methyl-propionamide], the EC50 was 4.5 µM in data set [1] and 3000 nM in data set [2] (Table 3). Moreover, in data set [2] (setting [3]), the maximal response (Emax) came out at 55%. The “Classification” value in data set [2] is listed as “partial GK activators”.

On to `CC(C)(Oc1ccc2c(c1)OCO2)C(=O)Nc1ncc(Cl)s1` [Example A10, 2-(Benzo[1,3]dioxol-5-yloxy)-N-(5-chloro-thiazol-2-yl)-2-methyl-propionamide], for which the EC50 in data set [1] is 2.2 µM. In addition, the Emax in data set [2] (setting [4]) was 75%.
